Assay results reported in PubChem BioAssay AID342 (DTP/NCI, 2004).
Values joined by “and” are separate entries in the source; they are usually repeats but may differ in a detail not shown here. Equal entries are not always repeated.

Tested on: Swiss mice, Sarcoma 180 sc, mean tumor weight T/C
Experiment: NCI In Vivo Anticancer Drug Screen. Data for tumor model Sarcoma 180 (subcutaneous) in Swiss mice
Conditions: endpoint: mean tumor weight, higher = larger tumour
Method in brief: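 Tumor-bearing mice, transplantable tumor; readout survival or tumor size; result = T/C, treated vs vehicle control.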

[1] = dose: 25.0 mg/kg/injection, schedule: Q01DX007 (ip), vehicle: carboxymethylcellulose (CMC)
[2] = dose: 400.0 mg/kg/injection, schedule: Q01DX007 (ip), vehicle: carboxymethylcellulose (CMC)
[3] = dose: 2.5 mg/kg/injection, schedule: Q01DX007 (sc), vehicle: steriod suspending solution
[4] = dose: 5.0 mg/kg/injection, schedule: Q01DX007 (sc), vehicle: steriod suspending solution
[5] = dose: 200.0 mg/kg/injection, schedule: Q01DX007 (ip), vehicle: carboxymethylcellulose (CMC)
[6] = dose: 500.0 mg/kg/injection, schedule: Q01DX007 (ip), vehicle: carboxymethylcellulose (CMC)
[7] = dose: 2.3 mg/kg/injection, schedule: Q01DX007 (ip), vehicle: carboxymethylcellulose (CMC)
[8] = dose: 8.0 mg/kg/injection, schedule: Q01DX007 (ip), vehicle: carboxymethylcellulose (CMC)

COc1cccc(/C=N\NC(=O)C(C)SC(C)C(=O)N/N=C/c2cccc(OC)c2)c1 (stereo not drawn)
T/C [1]: 68 % of control | T/C (dose: 38.0 mg/kg/injection, schedule: Q01DX007 (ip), vehicle: carboxymethylcellulose (CMC)): 62 % of control | T/C (dose: 42.0 mg/kg/injection, schedule: Q#A X014 (ip), vehicle: carboxymethylcellulose (CMC)): 78 % of control | T/C (dose: 53.0 mg/kg/injection, schedule: Q01DX007 (ip), vehicle: methylcellulose (MC)): 77 % of control | T/C (dose: 56.0 mg/kg/injection, schedule: Q01DX007 (ip), vehicle: carboxymethylcellulose (CMC)): 35 % of control | T/C (dose: 63.0 mg/kg/injection, schedule: Q#A X014 (ip), vehicle: carboxymethylcellulose (CMC)): 79 % of control | T/C (dose: 80.0 mg/kg/injection, schedule: Q01DX007 (ip), vehicle: methylcellulose (MC)): 63 % of control | T/C (dose: 95.0 mg/kg/injection, schedule: Q#A X014 (ip), vehicle: carboxymethylcellulose (CMC)): 65 % of control | T/C (dose: 120.0 mg/kg/injection, schedule: Q01DX007 (ip), vehicle: methylcellulose (MC)): 47 % of control | T/C (dose: 142.5 mg/kg/injection, schedule: Q#A X014 (ip), vehicle: carboxymethylcellulose (CMC)): 61 % of control | T/C (dose: 180.0 mg/kg/injection, schedule: Q01DX007 (ip), vehicle: methylcellulose (MC)): 59 % of control | T/C (dose: 270.0 mg/kg/injection, schedule: Q01DX007 (ip), vehicle: methylcellulose (MC)): 58 % of control | T/C (dose: 300.0 mg/kg/injection, schedule: Q01DX007 (ip), vehicle: carboxymethylcellulose (CMC)): 64 % of control | T/C [2]: 59 % of control

CC1(c2ccccc2)O[C@@H]2C[C@H]3[C@@H]4CCC5=CC(=O)C=C[C@]5(C)[C@@]4(F)[C@@H](O)C[C@]3(C)[C@]2(C(=O)CO)O1 (stereo partly drawn)
T/C (dose: 1.2 mg/kg/injection, schedule: Q01DX007 (sc), vehicle: steriod suspending solution): 72 % of control | T/C (dose: 1.7 mg/kg/injection, schedule: Q#A X014 (sc), vehicle: steriod suspending solution): 70 % of control | T/C [3]: 70 % of control | T/C (dose: 2.6 mg/kg/injection, schedule: Q#A X014 (sc), vehicle: steriod suspending solution): 32 % of control | T/C [4]: 52 % of control | T/C (dose: 6.0 mg/kg/injection, schedule: Q01DX007 (sc), vehicle: steriod suspending solution): 63 % of control | T/C (dose: 39.0 mg/kg/injection, schedule: Q01DX007 (sc), vehicle: steriod suspending solution): 28 % of control | T/C (dose: 50.0 mg/kg/injection, schedule: Q01DX007 (sc), vehicle: steriod suspending solution): 14 % of control | T/C (dose: 60.0 mg/kg/injection, schedule: Q01DX007 (sc), vehicle: steriod suspending solution): 33 % of control | T/C (dose: 100.0 mg/kg/injection, schedule: Q01DX007 (sc), vehicle: steriod suspending solution): 7 % of control

c1ccc2cc3c(cc2c1)Cn1c-3nc2ccccc21
T/C [1]: 76 % of control | T/C (dose: 50.0 mg/kg/injection, schedule: Q01DX007 (ip), vehicle: carboxymethylcellulose (CMC)): 86 % of control | T/C [5]: 53 % of control and 57 % of control | T/C [2]: 54 % of control | T/C [6]: 27 % of control and 34 % of control | T/C (dose: 800.0 mg/kg/injection, schedule: Q01DX007 (ip), vehicle: carboxymethylcellulose (CMC)): 38 % of control

CCc1nc(N)nc(N)c1-c1ccc(Cl)c(Cl)c1.O.O.[Zn]
T/C (dose: 1.5 mg/kg/injection, schedule: Q01DX007 (ip), vehicle: carboxymethylcellulose (CMC)): 62 % of control | T/C [7]: 65 % of control | T/C (dose: 3.5 mg/kg/injection, schedule: Q01DX007 (ip), vehicle: carboxymethylcellulose (CMC)): 46 % of control | T/C [8]: 39 % of control | T/C (dose: 12.0 mg/kg/injection, schedule: Q01DX007 (ip), vehicle: carboxymethylcellulose (CMC)): 18 % of control

CC(C)(c1ccccc1)c1ccc(O)cc1
T/C (dose: 37.5 mg/kg/injection, schedule: Q01DX007 (ip), vehicle: carboxymethylcellulose (CMC)): 64 % of control | T/C (dose: 75.0 mg/kg/injection, schedule: Q01DX007 (ip), vehicle: carboxymethylcellulose (CMC)): 73 % of control | T/C (dose: 150.0 mg/kg/injection, schedule: Q01DX007 (ip), vehicle: carboxymethylcellulose (CMC)): 44 % of control

CO[C@H]1CC[C@@]2(C)C(=CC[C@H]3[C@@H]4C[C@H](O)C[C@@]4(C)CC[C@@H]32)C1
T/C [3]: 105 % of control | T/C [4]: 80 % of control

COC(=O)[C@H]1[C@H]2C[C@@H]3c4[nH]c5cc(OC)ccc5c4CCN3C[C@H]2C[C@@H](OC(=O)c2cc(OC)c(OC)c(OC)c2)[C@@H]1OC
T/C (dose: 0.44 mg/kg/injection, schedule: Q01DX007 (ip), vehicle: carboxymethylcellulose (CMC)): 101 % of control | T/C (dose: 0.5 mg/kg/injection, schedule: Q01DX007 (ip), vehicle: carboxymethylcellulose (CMC)): 91 % of control | T/C (dose: 0.66 mg/kg/injection, schedule: Q01DX007 (ip), vehicle: carboxymethylcellulose (CMC)): 79 % of control | T/C (dose: 2.0 mg/kg/injection, schedule: Q01DX007 (ip), vehicle: carboxymethylcellulose (CMC)): 35 % of control | T/C [7]: 42 % of control | T/C (dose: 3.4 mg/kg/injection, schedule: Q01DX007 (ip), vehicle: carboxymethylcellulose (CMC)): 18 % of control

COc1ccc(C[C@H](N)C(=O)NC2C(CO)OC(n3cnc4c(N(C)C)ncnc43)C2O)cc1 (stereo partly drawn)
T/C (dose: 12.5 mg/kg/injection, schedule: Q#A X014 (ip), vehicle: carboxymethylcellulose (CMC)): 106 % of control | T/C (dose: 13.12 mg/kg/injection, schedule: Q01DX007 (ip), vehicle: carboxymethylcellulose (CMC)): 65 % of control | T/C (dose: 26.25 mg/kg/injection, schedule: Q01DX007 (ip), vehicle: carboxymethylcellulose (CMC)): 105 % of control | T/C (dose: 52.5 mg/kg/injection, schedule: Q01DX007 (ip), vehicle: carboxymethylcellulose (CMC)): 66 % of control | T/C (dose: 105.0 mg/kg/injection, schedule: Q01DX007 (ip), vehicle: carboxymethylcellulose (CMC)): 80 % of control

C[C@@H](N)[C@@H](O)c1ccccc1
T/C (dose: 3.13 mg/kg/injection, schedule: Q01DX007 (ip), vehicle: saline): 89 % of control | T/C (dose: 6.25 mg/kg/injection, schedule: Q01DX007 (ip), vehicle: saline): 91 % of control | T/C (dose: 12.5 mg/kg/injection, schedule: Q01DX007 (ip), vehicle: saline): 51 % of control | T/C (dose: 25.0 mg/kg/injection, schedule: Q01DX007 (ip), vehicle: saline): 52 % of control

O=C(O)c1ccccc1C(=O)OCc1ccccc1
T/C [6]: 72 % of control

CCCCCCCCCCCCOP(N)(=O)OCCCCCCCCCCCC
T/C (dose: 20.0 mg/kg/injection, schedule: Q01DX007 (ip), vehicle: carboxymethylcellulose (CMC)): 73 % of control | T/C (dose: 55.0 mg/kg/injection, schedule: Q01DX007 (ip), vehicle: carboxymethylcellulose (CMC)): 86 % of control | T/C (dose: 55.5 mg/kg/injection, schedule: Q01DX007 (ip), vehicle: carboxymethylcellulose (CMC)): 49 % of control | T/C (dose: 80.0 mg/kg/injection, schedule: Q01DX007 (ip), vehicle: carboxymethylcellulose (CMC)): 103 % of control | T/C (dose: 83.0 mg/kg/injection, schedule: Q01DX007 (ip), vehicle: carboxymethylcellulose (CMC)): 71 % of control | T/C (dose: 83.3 mg/kg/injection, schedule: Q01DX007 (ip), vehicle: carboxymethylcellulose (CMC)): 54 % of control | T/C (dose: 120.0 mg/kg/injection, schedule: Q01DX007 (ip), vehicle: carboxymethylcellulose (CMC)): 54 % of control | T/C (dose: 125.0 mg/kg/injection, schedule: Q01DX007 (ip), vehicle: carboxymethylcellulose (CMC)): 42 % of control | T/C (dose: 187.5 mg/kg/injection, schedule: Q01DX007 (ip), vehicle: carboxymethylcellulose (CMC)): 22 % of control

Cc1nc(C(N)=O)nc2ccccc12
T/C (dose: 62.5 mg/kg/injection, schedule: Q#A X014 (ip), vehicle: methylcellulose (MC)): 64 % of control and 81 % of control | T/C [5]: 64 % of control and 65 % of control | T/C (dose: 250.0 mg/kg/injection, schedule: Q#A X014 (ip), vehicle: methylcellulose (MC)): 36 % of control

COC(=O)C1=COC(C)C2CN3CCc4c([nH]c5cc(OC)ccc45)C3CC12 (stereo not drawn)
T/C (dose: 50.0 mg/kg/injection, schedule: Q01DX007 (ip), vehicle: other): 91 % of control | T/C (dose: 100.0 mg/kg/injection, schedule: Q01DX007 (ip), vehicle: other): 89 % of control | T/C (dose: 200.0 mg/kg/injection, schedule: Q01DX007 (ip), vehicle: other): 75 % of control

CC(=O)OCC(=O)[C@@]1(O)CC[C@H]2[C@@H]3C[C@H](F)C4=CC(=O)CC[C@]4(C)[C@H]3C(=O)C[C@@]21C
T/C [3]: 60 % of control | T/C [4]: 49 % of control | T/C (dose: 10.0 mg/kg/injection, schedule: Q01DX007 (sc), vehicle: steriod suspending solution): 51 % of control | T/C (dose: 19.0 mg/kg/injection, schedule: Q01DX007 (sc), vehicle: steriod suspending solution): 41 % of control | T/C (dose: 29.0 mg/kg/injection, schedule: Q01DX007 (sc), vehicle: steriod suspending solution): 31 % of control

O=C1c2ccccc2C(=O)N1CCF
T/C (dose: 4.0 mg/kg/injection, schedule: Q01DX007 (ip), vehicle: carboxymethylcellulose (CMC)): 90 % of control | T/C [8]: 72 % of control
